Source: PubChem BioAssay (NCI)
“And” between values parts separate entries of the source, which are not always exact repeats. Equal entries are not always repeated.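 A five-concentration, 48-hour dose response in 96-well plates underlies each endpoint, interpolated linearly between surrounding concentrations. GI50 marks 50% less growth. The concentration for full growth arrest is given as TGI.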

Legend:
Assay in all cases: growth of human tumour cells (NCI), 48 h
HL-60(TB) leukemia = test system: HL-60(TB) leukemia
COLO 205 colon = test system: COLO 205 colon
SF-295 CNS = test system: SF-295 CNS
HCC-2998 colon = test system: HCC-2998 colon
LOX IMVI melanoma = test system: LOX IMVI melanoma
MOLT-4 leukemia = test system: MOLT-4 leukemia
SK-OV-3 ovarian = test system: SK-OV-3 ovarian
SF-539 CNS = test system: SF-539 CNS
MCF7 breast = test system: MCF7 breast
PC-3 prostate = test system: PC-3 prostate

## CC(=O)[CH-]C(=O)c1ccccc1.CC(=O)[CH-]C(=O)c1ccccc1.CC(=O)[CH-]C(=O)c1ccccc1.[Tl+3]
HL-60(TB) leukemia
  GI50: 4.83 µM
  TGI: 16.9 µM
COLO 205 colon
  GI50: 25.9 µM
  TGI: 97.7 µM
SF-295 CNS
  GI50: 48.7 µM
  TGI: > 100 µM
HCC-2998 colon
  GI50: 37.5 µM
  TGI: > 100 µM
LOX IMVI melanoma
  GI50: 42.7 µM
  TGI: > 100 µM
MOLT-4 leukemia
  GI50: 18.8 µM
  TGI: > 69.4 µM
SK-OV-3 ovarian
  GI50: > 61.8 µM
  TGI: > 100 µM
SF-539 CNS
  GI50: 36.9 µM
  TGI: > 100 µM

## COc1ccc2c([nH]c3cc(O)c(C)cc32)c1C=O
HL-60(TB) leukemia
  TGI: > 25 µM
COLO 205 colon
  TGI: > 25 µM
HCC-2998 colon
  TGI: > 25 µM
LOX IMVI melanoma
  TGI: > 25 µM
MOLT-4 leukemia
  TGI: > 25 µM
SK-OV-3 ovarian
  TGI: > 25 µM
SF-539 CNS
  TGI: > 25 µM

## CN(C)CC(/C(Cc1ccccc1)=N\NC(=O)c1ccncc1)c1ccccc1 (stereo not given)
HL-60(TB) leukemia
  TGI: 32 µM
COLO 205 colon
  TGI: > 100 µM
SF-295 CNS
  TGI: 68.3 µM
HCC-2998 colon
  TGI: > 100 µM
LOX IMVI melanoma
  TGI: > 100 µM
SK-OV-3 ovarian
  TGI: > 100 µM
SF-539 CNS
  TGI: > 100 µM

## S=c1nc(Oc2ccc(Cl)c(Cl)c2)[nH]c(=S)[nH]1
HL-60(TB) leukemia
  TGI: > 100 µM
MCF7 breast
  TGI: > 100 µM
COLO 205 colon
  TGI: > 60.4 µM
SF-295 CNS
  TGI: > 100 µM
HCC-2998 colon
  TGI: 37.9 µM
LOX IMVI melanoma
  TGI: 37.8 µM
MOLT-4 leukemia
  TGI: > 69.6 µM
SK-OV-3 ovarian
  TGI: > 100 µM
SF-539 CNS
  TGI: > 73.1 µM

## Nc1nc(Nc2ccc3c(c2)CC[C@@H](N2CCCC2)CC3)nn1-c1cc2c(nn1)-c1ccccc1CCC2
SF-295 CNS
  GI50: 1.88 µM
  TGI: 3.51 µM
HCC-2998 colon
  GI50: 1.61 µM
  TGI: 3.1 µM
LOX IMVI melanoma
  GI50: 1.5 µM
  TGI: 2.92 µM
MOLT-4 leukemia
  GI50: 0.82 µM
  TGI: 3.63 µM
SK-OV-3 ovarian
  GI50: 1.66 µM
  TGI: 3.34 µM

## CC1(C)COCN1COC1CCCCC1
MCF7 breast
  TGI: > 100 µM
COLO 205 colon
  TGI: > 100 µM
SF-295 CNS
  TGI: > 100 µM
HCC-2998 colon
  TGI: > 100 µM
PC-3 prostate
  TGI: > 100 µM
MOLT-4 leukemia
  TGI: 83.9 µM
SK-OV-3 ovarian
  TGI: > 100 µM
SF-539 CNS
  TGI: > 100 µM

## Cc1ncc([N+](=O)[O-])n1CCNS(=O)(=O)CCCn1ccnc1[N+](=O)[O-]
HL-60(TB) leukemia
  TGI: > 100 µM
MCF7 breast
  TGI: > 100 µM
COLO 205 colon
  TGI: > 100 µM
SF-295 CNS
  TGI: > 100 µM
LOX IMVI melanoma
  TGI: > 100 µM
PC-3 prostate
  TGI: > 100 µM
MOLT-4 leukemia
  TGI: > 100 µM
SK-OV-3 ovarian
  TGI: > 100 µM
SF-539 CNS
  TGI: > 100 µM

## Nc1ccccc1/C=C\c1ccccc1
HL-60(TB) leukemia
  TGI: > 100 µM
MCF7 breast
  TGI: > 100 µM
SF-295 CNS
  TGI: > 100 µM
PC-3 prostate
  TGI: > 100 µM
MOLT-4 leukemia
  TGI: > 100 µM
SK-OV-3 ovarian
  TGI: > 100 µM
SF-539 CNS
  TGI: > 100 µM

## COC1/C=C\C=C(/C)C(=O)Nc2cc3nc4ccc(Br)cc4oc-3c(c2=O)CC(C)CC(OC)C(O)C(C)/C=C(\C)C1OC(N)=O (stereo not given)
HL-60(TB) leukemia
  GI50: 0.000389 µM
COLO 205 colon
  GI50: 0.000903 µM
  TGI: 0.169 µM
SF-295 CNS
  TGI: 25.8 µM
HCC-2998 colon
  GI50: 0.00856 µM
  TGI: 3.2 µM
LOX IMVI melanoma
  GI50: 0.00271 µM
  TGI: 0.959 µM
PC-3 prostate
  GI50: 0.00574 µM
  TGI: 24.5 µM
MOLT-4 leukemia
  GI50: 0.0031 µM
  TGI: 0.466 µM
SK-OV-3 ovarian
  TGI: 15.3 µM
SF-539 CNS
  GI50: 0.00745 µM
  TGI: 11.3 µM

## CN(C)CCCN=C(N)N
HL-60(TB) leukemia
  TGI: > 100 µM
MCF7 breast
  TGI: > 100 µM
COLO 205 colon
  TGI: > 100 µM
SF-295 CNS
  TGI: > 100 µM
LOX IMVI melanoma
  TGI: > 100 µM
PC-3 prostate
  TGI: > 100 µM
MOLT-4 leukemia
  TGI: > 100 µM
SK-OV-3 ovarian
  TGI: > 100 µM
SF-539 CNS
  TGI: > 100 µM

## C1CNCCNCCNCCN1
HL-60(TB) leukemia
  TGI: > 100 µM
COLO 205 colon
  TGI: > 100 µM
SF-295 CNS
  TGI: > 100 µM
HCC-2998 colon
  TGI: > 100 µM
LOX IMVI melanoma
  TGI: > 100 µM
MOLT-4 leukemia
  TGI: > 100 µM
SK-OV-3 ovarian
  TGI: > 100 µM
SF-539 CNS
  TGI: > 100 µM

## O=C1CCCCCCCCCCC(=O)C2CCOCCOCCOCCC1Cc1cccc(n1)C2
COLO 205 colon
  TGI: > 100 µM
SF-295 CNS
  TGI: > 100 µM
HCC-2998 colon
  TGI: > 100 µM
LOX IMVI melanoma
  TGI: > 100 µM
MOLT-4 leukemia
  TGI: > 100 µM
SK-OV-3 ovarian
  TGI: > 100 µM
SF-539 CNS
  TGI: > 100 µM

## N/N=C(\CC1OC(=O)c2ccccc21)c1ccco1 (stereo not given)
HL-60(TB) leukemia
  TGI: > 100 µM
COLO 205 colon
  TGI: > 100 µM
SF-295 CNS
  TGI: > 100 µM
HCC-2998 colon
  TGI: > 100 µM
LOX IMVI melanoma
  TGI: > 100 µM
MOLT-4 leukemia
  TGI: > 100 µM
SK-OV-3 ovarian
  TGI: > 100 µM
SF-539 CNS
  TGI: > 100 µM

## Cc1cccc(C)c1NC(=O)CCCC(=O)CC(=O)/C=C/c1ccccc1
COLO 205 colon
  TGI: > 100 µM
LOX IMVI melanoma
  TGI: > 100 µM
MOLT-4 leukemia
  TGI: > 100 µM
SK-OV-3 ovarian
  TGI: > 100 µM
SF-539 CNS
  TGI: > 100 µM

## c1cc2c(cc1C(N1CCNCC1)N1CCNCC1)OCO2
MCF7 breast
  TGI: > 100 µM
COLO 205 colon
  TGI: > 100 µM
SF-295 CNS
  TGI: > 100 µM
LOX IMVI melanoma
  TGI: > 100 µM
PC-3 prostate
  TGI: > 100 µM
SK-OV-3 ovarian
  TGI: > 100 µM
SF-539 CNS
  TGI: > 100 µM

## O=C(CNC(=O)OCc1ccccc1)Oc1ccccc1
HL-60(TB) leukemia
  TGI: > 100 µM
COLO 205 colon
  TGI: > 100 µM
SF-295 CNS
  TGI: > 100 µM
HCC-2998 colon
  TGI: > 100 µM
LOX IMVI melanoma
  TGI: > 100 µM
MOLT-4 leukemia
  TGI: > 100 µM
SK-OV-3 ovarian
  TGI: > 100 µM
SF-539 CNS
  TGI: > 100 µM

## CCOc1cc2c(cnc3c4cc(OC)c(OC)cc4ccc23)cc1OC
COLO 205 colon
  TGI: > 100 µM
SF-295 CNS
  TGI: > 100 µM
HCC-2998 colon
  TGI: > 100 µM
MOLT-4 leukemia
  TGI: > 100 µM
SK-OV-3 ovarian
  TGI: > 100 µM
SF-539 CNS
  TGI: > 100 µM

## CC1(C)OC[C@@H]([C@@]2(CO[Si](C)(C)C(C)(C)C)CC=CC(=O)O2)O1
MCF7 breast
  GI50: 36.8 µM
  TGI: > 100 µM
COLO 205 colon
  GI50: 33.5 µM
  TGI: > 100 µM
SF-295 CNS
  GI50: 19.6 µM
  TGI: 42 µM
HCC-2998 colon
  GI50: 18.6 µM
  TGI: 34.1 µM
LOX IMVI melanoma
  GI50: 28.3 µM
  TGI: > 100 µM
PC-3 prostate
  GI50: 19.6 µM
  TGI: 74.2 µM
MOLT-4 leukemia
  GI50: 23.7 µM
  TGI: > 100 µM
SK-OV-3 ovarian
  GI50: 30.4 µM
  TGI: 88.5 µM
SF-539 CNS
  GI50: 20.6 µM
  TGI: 42.4 µM

## COC(=O)NC/C=C\c1nc(CC/C=C\C(=O)OC2CC3CC(=O)O[C@H](/C=C/CC(C)C)C[C@H]4CCC(C)C(C[C@H](OC)CC(C2)O3)O4)co1 (stereo not given in full)
MCF7 breast
  GI50: < 0.01 µM
  TGI: 10.5 µM
COLO 205 colon
  GI50: 1.1 µM
  TGI: > 100 µM
SF-295 CNS
  GI50: < 0.01 µM
  TGI: 61.5 µM
PC-3 prostate
  GI50: 0.218 µM
  TGI: > 100 µM
SK-OV-3 ovarian
  GI50: 63.9 µM
  TGI: > 100 µM
SF-539 CNS
  GI50: < 0.01 µM
  TGI: 0.114 µM

## S=c1[nH]c(=S)c2sc(=S)n(-c3ccccc3)c2[nH]1
HL-60(TB) leukemia
  TGI: > 100 µM
COLO 205 colon
  TGI: > 100 µM
SF-295 CNS
  TGI: > 100 µM
HCC-2998 colon
  TGI: > 100 µM
LOX IMVI melanoma
  TGI: > 100 µM
MOLT-4 leukemia
  TGI: > 100 µM
SK-OV-3 ovarian
  TGI: > 100 µM
SF-539 CNS
  TGI: > 100 µM

## CC1Cc2c(N)nc(NN)nc2NC1=O (stereo not given)
HL-60(TB) leukemia
  TGI: > 100 µM
COLO 205 colon
  TGI: > 100 µM
SF-295 CNS
  TGI: > 100 µM
LOX IMVI melanoma
  TGI: > 100 µM
MOLT-4 leukemia
  TGI: > 100 µM
SK-OV-3 ovarian
  TGI: > 100 µM
SF-539 CNS
  TGI: > 100 µM

## CC(=O)OCC1OC(OC2CC3C(C)(C)C(OC(C)=O)CC[C@]3(C)C3CCC45CC4(CC[C@H]5C(C)CC(O)[C@@H](O)C(C)(C)O)[C@]23C)C(O)C(O)C1O (stereo not given in full)
HL-60(TB) leukemia
  GI50: 2.45 µM
  TGI: 11.9 µM and 5.3 µM
COLO 205 colon
  GI50: 1.93 µM
  TGI: 14 µM and 3.95 µM
SF-295 CNS
  GI50: 4.41 µM
  TGI: 14.2 µM and 14.3 µM
HCC-2998 colon
  TGI: 12.9 µM
LOX IMVI melanoma
  GI50: 3.34 µM
  TGI: 13 µM and 11.2 µM
MOLT-4 leukemia
  GI50: 0.0045 µM
  TGI: 45 µM and 10.5 µM
SK-OV-3 ovarian
  GI50: 12.4 µM
  TGI: 11.6 µM and 24.8 µM
SF-539 CNS
  TGI: 13.5 µM and 18.9 µM
